# Test results: patent US6426229B1, “Chelating agent and detergent comprising the same” (Mitsubishi Rayon Co., Ltd., priority 1995, dated 2002)
# Assay: Storage of aqueous solution or slurry for 60 days: HPLC analysis of components and appearance
# Format: physicochemical
# Conditions: keeping temperature 40° C.
SMILES,Appearance after kept for 60 days,Content of the compound of the formula [I] in aqueous solution after kept for 60 days [wt. %]
"O=C([O-])CC(NCCCNC(CC(=O)[O-])C(=O)[O-])C(=O)[O-].[Na+].[Na+].[Na+].[Na+] (stereo not shown) [Example 123, tetrasodium 1,3-propanediamine-N,N′-disuccinate]",White slurry,74.1
"O=C([O-])CC(NCCNC(CC(=O)[O-])C(=O)[O-])C(=O)[O-].[Na+].[Na+].[Na+].[Na+] (stereo not shown) [Example 122, tetrasodium ethylenediamine-N,N′-disuccinate]",White slurry,74.1
"O=C([O-])CN(CC(=O)[O-])c1ccccc1C(=O)[O-].[Fe+3] [compound 42, iron salt of anthranilic acid-N,N-diacetic acid, reference compound]",Blackish brown aqueous solution,40.6

# Same assay, conditions: keeping temperature 60° C.
SMILES,Appearance after kept for 60 days,Content of the compound of the formula [I] in aqueous solution after kept for 60 days [wt. %]
"O=C([O-])C[C@@H](C(=O)[O-])N(CC(=O)[O-])CC(=O)[O-].[Na+].[Na+].[Na+].[Na+] [compound 36, tetrasodium salt of (S)-aspartic acid-N,N-diacetic acid, reference compound]",Brown slurry,48.3

# Same assay, conditions: keeping temperature 65° C.
SMILES,Appearance after kept for 60 days,Content of the compound of the formula [I] in aqueous solution after kept for 60 days [wt. %]
"C[C@@H](C(=O)[O-])N(CC(=O)[O-])CC(=O)[O-].[Na+].[Na+].[Na+] [Example 96, trisodium salt of (S)-α-alanine-N,N-diacetic acid]",Light yellow slurry,64.7
"CN(CC(=O)[O-])CC(=O)[O-].[Na+].[Na+] [Example 107, disodium N-methyliminodiacetate]",Light yellow slurry,64.5
"O=C([O-])CN[C@@H](CC(=O)[O-])C(=O)[O-].[Na+].[Na+].[Na+] [Example 93, trisodium salt of (S)-aspartic acid-N-monoacetic acid]",Light yellow slurry,63.7
"O=C([O-])C[C@H](NCCN[C@@H](CC(=O)[O-])C(=O)[O-])C(=O)[O-].[Na+].[Na+].[Na+].[Na+] [Example 118, tetrasodium (S,S)-ethylenediamine-N,N′-disuccinate]",Light yellow slurry,65.4

# Same assay, conditions: keeping temperature 70° C.
SMILES,Appearance after kept for 60 days,Content of the compound of the formula [I] in aqueous solution after kept for 60 days [wt. %]
"O=C([O-])CCN[C@@H](CC(=O)[O-])C(=O)[O-].[Na+].[Na+].[Na+] [Example 99, trisodium salt of (S)-aspartic acid-N-monopropionic acid]",White slurry,79.4
"O=C([O-])CN(CCS(=O)(=O)[O-])CC(=O)[O-].[Na+].[Na+].[Na+] [Example 108, trisodium salt of taurine-N,N-diacetic acid]",White slurry,76.9

# Same assay, conditions: keeping temperature 75° C.
SMILES,Appearance after kept for 60 days,Content of the compound of the formula [I] in aqueous solution after kept for 60 days [wt. %]
"C[C@@H](C(=O)[O-])N(CC(=O)[O-])CC(=O)[O-].[Na+].[Na+].[Na+] [Example 92, trisodium salt of (S)-α-alanine-N,N-diacetic acid]",Colorless transparent aqueous solution,49.8
"O=C([O-])CC(NCCCNC(CC(=O)[O-])C(=O)[O-])C(=O)[O-].[Na+].[Na+].[Ni+2] [Example 127, nickel disodium (S,S)-1,3-propanediamine-N,N′-disuccinate]",Blue transparent aqueous solution,44.0
"O=C([O-])C[C@H](NCC(O)CN[C@@H](CC(=O)[O-])C(=O)[O-])C(=O)[O-].[Na+].[Na+].[Na+].[Na+] [compound 47, tetrasodium (S,S)-2-hydroxy-1,3-propanediamine-N,N′-disuccinate, reference compound]",Colorless transparent aqueous solution,41.8
"O=C([O-])CC(NCCCNC(CC(=O)[O-])C(=O)[O-])C(=O)[O-].[Na+].[Na+].[Ni+2] [compound 51, nickel disodium (S,S)-1,3-propanediamine-N,N′-disuccinate, reference compound]",Blue transparent aqueous solution,38.4
"O=C([O-])CCN[C@@H](CC(=O)[O-])C(=O)[O-].[Na+].[Na+].[Na+] [Example 91, trisodium salt of (S)-aspartic acid-N-monopropionic acid]",Colorless transparent aqueous solution,49.8
"O=C([O-])C[C@H](NCC(O)CN[C@@H](CC(=O)[O-])C(=O)[O-])C(=O)[O-].[Cu+2].[Na+].[Na+] [compound 52, copper disodium (S,S)-2-hydroxy-1,3-propanediamine-N,N′-disuccinate, reference compound]",Dark blue transparent aqueous solution,38.7
"CN(CC(=O)[O-])CC(=O)[O-].[Na+].[Na+] [Example 104, disodium N-methyliminodiacetate]",Colorless transparent aqueous solution,
"O=C([O-])C[C@@H](C(=O)[O-])N(CC(=O)[O-])CC(=O)[O-].[Na+].[Na+].[Na+].[Na+] [Example 90, tetrasodium salt of (S)-aspartic acid-N,N-diacetic acid]",Colorless transparent aqueous solution,49.5
"O=C([O-])CN(CCS(=O)(=O)[O-])CC(=O)[O-].[Na+].[Na+].[Na+] [Example 103, trisodium salt of taurine-N,N-diacetic acid]",Colorless transparent aqueous solution,49.4
"O=C([O-])CN[C@@H](CC(=O)[O-])C(=O)[O-].[Na+].[Na+].[Na+] [compound 34, trisodium salt of (S)-aspartic acid-N-monoacetic acid, reference compound]",Brown aquequs solution,30.6
"O=C([O-])C[C@H](NCCCN[C@@H](CC(=O)[O-])C(=O)[O-])C(=O)[O-].[Na+].[Na+].[Na+].[Na+] [Example 115, tetrasodium (S,S)-1,3-propanediamine-N,N′-disuccinate]",Colorless transparent aqueous solution,44.3
"O=C([O-])CC(NCCNC(CC(=O)[O-])C(=O)[O-])C(=O)[O-].[Na+].[Na+].[Na+].[Na+] (stereo not shown) [Example 117, tetrasodium ethylenediamine-N,N′-disuccinate]",Colorless transparent aqueous solution,49.8
